Source: publication PMC6001238, “Iterative Chemical Engineering of Vancomycin Leads to Novel Vancomycin Analogs With a High in Vitro Therapeutic Index” (Frontiers in Microbiology, 2018)
In brackets after ≈: the same amount, converted by molar mass.

Key:
[1] = tested on: E. faecalis VSE 1; assay: MIC, broth microdilution, vancomycin-sensitive E. faecalis (VSE 1); format: cell-based, Enterococcus faecalis; details: for MIC: Enterococcus faecalis VSE 1 (vancomycin-sensitive), read-out: MIC; for MIC-fold improvement vs. vancomycin: VSE 1, ratio of MIC of vancomycin and MIC of analogue
Experimental: (§1) The minimum inhibitory concentration (MIC) was determined using the broth microdilution method according to the antimicrobial susceptibility testing standards of the clinical and laboratory standards institute ([Clinical and Laboratory Standards Institute [CLSI], 2012]). Ultrapure water and non-inoculated broth were used as controls. In one case, a final concentration of 10 μM vancomycin was included with the vancomycin analog or control antibiotic.

[2] = tested on: E. faecalis VRE 6; assay: MIC, broth microdilution, vancomycin-resistant E. faecalis VRE 6 (VanA); format: cell-based, Enterococcus faecalis; details: for MIC: Enterococcus faecalis VRE 6 (vancomycin-resistant), read-out: MIC; for MIC-fold improvement vs. vancomycin: VRE 6, ratio of MIC of vancomycin and MIC of analogue
Experimental: as §1

[3] = tested on: E. faecalis VRE 53; assay: MIC, broth microdilution, vancomycin-resistant E. faecalis VRE 53 (VanA); format: cell-based, Enterococcus faecalis; details: for MIC: Enterococcus faecalis VRE 53 (vancomycin-resistant), read-out: MIC; for MIC-fold improvement vs. vancomycin: VRE 53, ratio of MIC of vancomycin and MIC of analogue
Experimental: as §1

[4] = tested on: E. faecalis VRE 29; assay: MIC, broth microdilution, vancomycin-resistant E. faecalis VRE 29 (VanA); format: cell-based, Enterococcus faecalis; details: for MIC: Enterococcus faecalis VRE 29 (vancomycin-resistant), read-out: MIC; for MIC-fold improvement vs. vancomycin: VRE 29, ratio of MIC of vancomycin and MIC of analogue
Experimental: as §1

[5] = tested on: E. faecalis VRE 37; assay: MIC, broth microdilution, vancomycin-resistant E. faecalis VRE 37 (VanA); format: cell-based, Enterococcus faecalis; details: for MIC: Enterococcus faecalis VRE 37 (vancomycin-resistant), read-out: MIC
Experimental: as §1

[6] = tested on: Murine leukemia (L1210) cells; assay: Cytostatic activity, L1210 cell proliferation; format: cell-based; details: mean ± SD of three experiments; highest concentration tested 250 µM; 2 days; read-out: Toxicity (IC50) L1210
Experimental: (§2) Murine leukemia (L1210), human T-lymphocyte (CEM) and the human cervix carcinoma (HeLa) cell line were suspended at 300,000–500,000 cells/mL of culture medium, and 100 μL of a cell suspension was added to 100 μL of an appropriate dilution of the test compounds in wells of 96-well microtiter plates. After incubation at 37°C for 2 (L1210), 3 (CEM), or 4 (HeLa) days, the cell number was determined using a Coulter counter. The IC50 was defined per cell type as the compound concentration required to inhibit cell proliferation by 50% compared to the negative control ([Glowacka et al., 2017]).

[7] = tested on: human T-lymphocyte (CEM) cells; assay: Cytostatic activity, CEM cell proliferation; format: cell-based; details: mean ± SD of three experiments; highest concentration tested 250 µM; 3 days; read-out: Toxicity (IC50) CEM
Experimental: as §2

[8] = tested on: human cervix carcinoma (HeLa) cells; assay: Cytostatic activity, HeLa cell proliferation; format: cell-based; details: mean ± SD of three experiments; highest concentration tested 250 µM; 4 days; read-out: Toxicity (IC50) HeLa
Experimental: as §2

[9] = tested on: L1210, CEM and HeLa cell lines; assay: Cytostatic activity, average or summary over L1210, CEM and HeLa; format: cell-based; details: average of L1210, CEM and HeLa; read-out: Toxicity (IC50) Average
Experimental: as §2

[10] = tested on: S. aureus VSSA (ATCC 6538); assay: MIC, broth microdilution, vancomycin-sensitive S. aureus (VSSA/MSSA, ATCC 6538); format: cell-based, Staphylococcus aureus; details: for MIC: Staphylococcus aureus VSSA, read-out: MIC; for MIC-fold improvement vs. vancomycin: VSSA, ratio of MIC of vancomycin and MIC of analogue
Experimental: as §1

[11] = tested on: S. aureus VISA/HIP5827; assay: MIC, broth microdilution, vancomycin-intermediate S. aureus VISA HIP5827; format: cell-based, Staphylococcus aureus; details: for MIC: Staphylococcus aureus VISA/HIP5827, read-out: MIC; for MIC-fold improvement vs. vancomycin: VISA/HIP5827, ratio of MIC of vancomycin and MIC of analogue
Experimental: as §1

[12] = tested on: S. aureus VRSA; assay: MIC, broth microdilution, vancomycin-resistant S. aureus (VRSA); format: cell-based, Staphylococcus aureus; details: for MIC: Staphylococcus aureus VRSA, read-out: MIC; for MIC-fold improvement vs. vancomycin: VRSA, ratio of MIC of vancomycin and MIC of analogue
Experimental: as §1

[13] = tested on: MRSA KS2; assay: MIC, broth microdilution, MRSA KS2; format: cell-based, Staphylococcus aureus; details: for MIC-fold improvement vs. vancomycin: MRSA KS2, ratio of MIC of vancomycin and MIC of analogue; for MIC: Staphylococcus aureus MRSA KS2, read-out: MIC
Experimental: as §1

[14] = tested on: MRSA KS6; assay: MIC, broth microdilution, MRSA KS6; format: cell-based, Staphylococcus aureus; details: for MIC-fold improvement vs. vancomycin: MRSA KS6, ratio of MIC of vancomycin and MIC of analogue; for MIC: Staphylococcus aureus MRSA KS6, read-out: MIC
Experimental: as §1

[15] = tested on: MRSA KS89; assay: MIC, broth microdilution, MRSA KS89; format: cell-based, Staphylococcus aureus; details: for MIC-fold improvement vs. vancomycin: MRSA KS8, ratio of MIC of vancomycin and MIC of analogue; for MIC: Staphylococcus aureus MRSA KS8, read-out: MIC
Experimental: as §1

[16] = tested on: MRSA KS1; assay: MIC, broth microdilution, MRSA KS1; format: cell-based, Staphylococcus aureus; details: for MIC-fold improvement vs. vancomycin: MRSA KS1, ratio of MIC of vancomycin and MIC of analogue; for MIC: Staphylococcus aureus MRSA KS1, read-out: MIC
Experimental: as §1

SMILES | MIC [1] | MIC-fold improvement vs. vancomycin [1] | MIC [2] | MIC-fold improvement vs. vancomycin [2] | MIC [3] | MIC-fold improvement vs. vancomycin [3] | MIC [4] | MIC-fold improvement vs. vancomycin [4] | MIC [5] | IC50 [6] | IC50 [7] | IC50 [8] | IC50 [9] | MIC [10] | MIC-fold improvement vs. vancomycin [10] | MIC [11] | MIC-fold improvement vs. vancomycin [11] | MIC [12] | MIC-fold improvement vs. vancomycin [12] | MIC-fold improvement vs. vancomycin [13] | further results
CN[C@H](CC(C)C)C(=O)N[C@H]1C(=O)N[C@@H](CC(N)=O)C(=O)N[C@H]2C(=O)N[C@H]3C(=O)N[C@H](C(=O)N[C@H](C(=O)NCC(=O)Nc4ccc(OC)c(OC)c4)c4cc(O)cc(O)c4-c4cc3ccc4O)[C@H](O)c3ccc(c(Cl)c3)Oc3cc2cc(c3O[C@@H]2O[C@H](CO)[C@@H](O)[C@H](O)[C@H]2O[C@H]2C[C@](C)(N)[C@H](O)[C@H](C)O2)Oc2ccc(cc2Cl)[C@H]1O [Vanc-7] | 0.78 µM (≈ 1.28 µg/mL) | 2 | 12.5 µM (≈ 20.5 µg/mL) | 16 | 12.5 µM (≈ 20.5 µg/mL) | 32 | 12.5 µM (≈ 20.5 µg/mL) | 32 | 12.5 µM (≈ 20.5 µg/mL) | > 250 µM | > 250 µM | > 250 µM | > 250 µM | 0.78 µM (≈ 1.28 µg/mL) | 1 | 0.78 µM (≈ 1.28 µg/mL) | 8 | 12.5 µM (≈ 20.5 µg/mL) | 8 | 2 | MIC-fold improvement vs. vancomycin ([5]; VRE 37, ratio of MIC of vancomycin and MIC of analogue): 64; MIC [13]: 0.39 µM (≈ 0.64 µg/mL); MIC-fold improvement vs. vancomycin [14]: 1; MIC [14]: 0.78 µM (≈ 1.28 µg/mL); MIC-fold improvement vs. vancomycin [15]: 1; MIC [15]: 0.78 µM (≈ 1.28 µg/mL); MIC-fold improvement vs. vancomycin [16]: 1; MIC [16]: 0.78 µM (≈ 1.28 µg/mL)
CN[C@H](CC(C)C)C(=O)N[C@H]1C(=O)N[C@@H](CC(N)=O)C(=O)N[C@H]2C(=O)N[C@H]3C(=O)N[C@H](C(=O)N[C@H](C(=O)NCC(=O)Nc4ccc(N5CCOCC5)cc4)c4cc(O)cc(O)c4-c4cc3ccc4O)[C@H](O)c3ccc(c(Cl)c3)Oc3cc2cc(c3O[C@@H]2O[C@H](CO)[C@@H](O)[C@H](O)[C@H]2O[C@H]2C[C@](C)(N)[C@H](O)[C@H](C)O2)Oc2ccc(cc2Cl)[C@H]1O [Vanc-8] | 0.78 µM (≈ 1.3 µg/mL) | 2 | 12.5 µM (≈ 20.8 µg/mL) | 16 | 12.5 µM (≈ 20.8 µg/mL) | 32 | 25 µM (≈ 41.7 µg/mL) | 16 | 25 µM (≈ 41.7 µg/mL) | > 250 µM | ≥ 250 µM | 107 ± 25 µM | 202 µM | 1.56 µM (≈ 2.6 µg/mL) | 0.5 | 1.56 µM (≈ 2.6 µg/mL) | 4 | 25 µM (≈ 41.7 µg/mL) | 4 | 1 | MIC [13]: 0.78 µM (≈ 1.3 µg/mL); MIC-fold improvement vs. vancomycin [14]: 0.5; MIC [14]: 1.56 µM (≈ 2.6 µg/mL); MIC-fold improvement vs. vancomycin [15]: 1; MIC [15]: 0.78 µM (≈ 1.3 µg/mL); MIC-fold improvement vs. vancomycin [16]: 1; MIC [16]: 0.78 µM (≈ 1.3 µg/mL)
